A short description of one data set: in vitro. Particulars: African green monkey, Cytotox CC50.
The subject of data set [1] is SUDV (glycoprotein, VSV pseudotype). Put plainly: microbe, parasite or virus in culture. The data set is classed as cell-based, Sudan ebolavirus. Particulars: Vesicular stomatitis virus, Vero, 24 h, read-out: EC50 Pseudotype Assays SUDV.
Data set [2] concerns EBOV_FL: full-length Ebola Zaire GP (VSV pseudotype). The experiment in a line: microbe, parasite or virus in culture. As to conditions: Zaire ebolavirus, Vero, 24 h, read-out: EC50 Pseudotype Assays EBOV_FL. The data set is classed as cell-based, Zaire ebolavirus.
Data set [3] has as its system BDBV (mucin-deleted glycoprotein, VSV pseudotype). Put plainly: microbe, parasite or virus in culture. It counts as cell-based, Bundibugyo ebolavirus. As to conditions: Vesicular stomatitis virus, Vero, 24 h, read-out: EC50 Pseudotype Assays BDBV.
Data set [4] has as its system MARV (full-length glycoprotein, VSV pseudotype). Put plainly: microbe, parasite or virus in culture. Particulars: Vesicular stomatitis virus, Vero, 24 h, read-out: EC50 Pseudotype Assays MARV. The data set is classed as cell-based, Marburg marburgvirus.
In data set [5] the test system is EBOV (mucin-deleted glycoprotein, VSV pseudotype). Put plainly: microbe, parasite or virus in culture. The data set is classed as cell-based, Zaire ebolavirus. As to conditions: read-out: EC50 Pseudotype Assays EBOV.

The text below walks through data of patent US11548893B2 (priority 2017, dated 2023).

pEC50: −log10 of the molar value. Where two headings read alike, the source gives them in different places. Some results are limits rather than exact numbers.

`CCC12CC3CC(C(=O)N[C@@H]4CCNC[C@H]4F)(C1)CC(c1ccccc1)(C3)C2` (mixture of isomers) [Example A17] gave a CC50 in “in vitro” of 6000 nM. The negative-log EC50 (pEC50) is 6.59 in data set [1]; 7.60 in data set [2]; 6.90 in data set [3]; 5.23 in data set [4]; 7.41 in data set [5].
`CCC12CC3CC(C(=O)N[C@H]4CCNC[C@@H]4F)(C1)CC(c1ccccc1)(C3)C2` (mixture of isomers) [Example A19]: the midpoint of cytotoxicity in “in vitro”, the CC50, lay at 7300 nM. Moreover, the pEC50 in data set [1] is 6.33; in data set [2], 7.40; in data set [3] it was 6.58; in data set [4], 5.46; in data set [5] (Zaire ebolavirus, Vero, 24 h), 7.64.
`CCC12CC3CC(C(=O)NC4CCNCC4(C)C)(C1)CC(c1ccccc1)(C3)C2` (racemic) [Example A20]: half-maximal cytotoxicity in “in vitro” (CC50) was put at 5700 nM. In addition, the pEC50 was 6.48 in data set [1]; 7.52 in data set [2]; 6.87 in data set [3]; 5.80 in data set [4]; 7.38 in data set [5] (Zaire ebolavirus, Vero, 24 h).
The compound `CCC12CC3CC(C(=O)N[C@H]4CCN[C@@H](C)C4)(C1)CC(c1ccccc1)(C3)C2` (mixture of isomers) [Example A21] showed a CC50 in “in vitro” of 3900 nM. Further, the pEC50 in data set [1] is 6.38; in data set [2], 7.70; in data set [3] it was 6.68; in data set [4] it was 5.16; in data set [5] (Zaire ebolavirus, Vero, 24 h), 7.66.
In the case of `CCC12CC3CC(C(=O)N[C@H]4CC[C@H](CN)CC4)(C1)CC(c1ccccc1)(C3)C2` (mixture of isomers) [Example A22], the CC50 in the data set “in vitro” turned out to be 3700 nM. Besides, the pEC50 in data set [1] is 6.38; in data set [2], 8.00; in data set [3], 6.73; in data set [4], 5.55; in data set [5] (Zaire ebolavirus, Vero, 24 h), 7.72.
As to `CCC12CC3CC(C(=O)N[C@@H]4CCNC[C@@H]4F)(C1)CC(c1ccccc1)(C3)C2` (mixture of isomers) [Example A23], in the data set “in vitro”, the CC50 amounted to 7800 nM. The pEC50 in data set [1] was 6.30; in data set [2], 7.70; in data set [3] it was 6.51; in data set [4] it was 5.45; in data set [5] (Zaire ebolavirus, Vero, 24 h) it was 7.39.
In turn, `CCC12CC3CC(C(=O)N[C@@H]4CCNC[C@H]4O)(C1)CC(c1ccccc1)(C3)C2` (mixture of isomers) [Example A25] returned a CC50 in “in vitro” of 11800 nM. In addition, the pEC50 in data set [1] is 6.10; in data set [2] it was 7.22; in data set [3], 6.70; in data set [4] it was 5.07; in data set [5] (Zaire ebolavirus, Vero, 24 h), 7.39.
Regarding `CCC12CC3CC(C(=O)NC4(C)CCNCC4)(C1)CC(c1ccccc1)(C3)C2` (racemic) [Example A26], half-maximal cytotoxicity in the data set “in vitro” (CC50) was put at 6700 nM. The pEC50 in data set [1] was 6.22; in data set [2] it was 6.70; in data set [3], 6.48; in data set [4] it was 5.59; in data set [5] (Zaire ebolavirus, Vero, 24 h), 6.89.
As for `N[C@H]1CC[C@@H](NC(=O)C23CC4CC(CF)(C2)CC(c2ccccc2)(C4)C3)CC1` (mixture of isomers) [Example A28], in “in vitro”, the CC50 was determined as 32300 nM. Besides, the pEC50 in data set [1] is 5.81; in data set [2], 6.85; in data set [3] it was 6.22; in data set [4] it was below 5.00; in data set [5] (Zaire ebolavirus, Vero, 24 h) it was 7.21.
As to `CC12CC3CC(C(=O)N4CCC(N)CC4)(C1)CC(c1ccccc1)(C3)C2` (racemic) [Example A33], the CC50 in “in vitro” is 13600 nM. Also, the pEC50 in data set [1] was 6.52; in data set [2], 6.70; in data set [3], 7.16; in data set [5] (Zaire ebolavirus, Vero, 24 h) it was 7.30.
Regarding `CC12CC3CC(C(=O)N4CCC5(CCCN5)CC4)(C1)CC(c1ccccc1)(C3)C2` (racemic) [Example A38], in “in vitro”, the CC50 is 6910 nM. Further, the pEC50 was 6.89 in data set [1]; 7.15 in data set [2]; 6.98 in data set [3]; 7.40 in data set [5] (Zaire ebolavirus, Vero, 24 h).
`CC12CC3CC(C(=O)N4CC5(CCNC5)C4)(C1)CC(c1ccccc1)(C3)C2` (racemic) [Example A49] came in with a CC50 in “in vitro” of 21900 nM. The pEC50 is 6.70 in data set [1]; 6.72 in data set [2]; 6.96 in data set [3]; 7.64 in data set [5] (Zaire ebolavirus, Vero, 24 h).
In the case of `C[C@]12CC3CC(C(=O)N[C@@H]4CCNC[C@H]4F)(C1)C[C@@](c1ccccc1)(C3)C2` [Example B5], the CC50 in the data set “in vitro” was 11900 nM. Besides, the pEC50 in data set [1] is 6.62; in data set [2], 7.70; in data set [3], 6.76; in data set [4], below 5.52; in data set [5] (Zaire ebolavirus, Vero, 24 h) it was 7.72.
`C[C@]12CC3CC(C(=O)N[C@H]4CCNC[C@@H]4F)(C1)C[C@@](c1ccccc1)(C3)C2` [Example B6] came in with a CC50 in the data set “in vitro” of 12200 nM. In addition, the pEC50 is 6.49 in data set [1]; 7.70 in data set [2]; 6.71 in data set [3]; below 5.52 in data set [4]; 7.44 in data set [5] (Zaire ebolavirus, Vero, 24 h).
With `C[C@]12CC3CC(C(=O)N4CCC(N)C5(CC5)C4)(C1)C[C@@](c1ccccc1)(C3)C2` (some centres unmarked) [Example B9], in the data set “in vitro”, the CC50 was 8900 nM. Moreover, the pEC50 was 7.12 in data set [1]; 7.22 in data set [2]; 7.07 in data set [3]; 7.60 in data set [5] (Zaire ebolavirus, Vero, 24 h).
In the case of `C[C@]12CC3CC(C(=O)N4CCC5(CCCN5)CC4)(C1)C[C@@](c1ccccc1)(C3)C2` [Example B10], in the data set “in vitro”, the CC50 stood at 12300 nM. Further, the pEC50 in data set [1] was 6.96; in data set [2], 7.30; in data set [3], 7.15; in data set [5] (Zaire ebolavirus, Vero, 24 h) it was 7.35.
In the data set “in vitro”, `C[C@@]12CC3CC(C(=O)N[C@H]4CC[C@H](CN)CC4)(C1)C[C@](c1ccccc1)(C3)C2` [Example C3] had a CC50 of 5200 nM. Moreover, the pEC50 is 6.07 in data set [1]; 7.52 in data set [2]; 6.72 in data set [3]; 5.50 in data set [4]; 7.14 in data set [5] (Zaire ebolavirus, Vero, 24 h).
In turn, `C[C@H]1C[C@@H](NC(=O)C23CC4C[C@](C)(C2)C[C@@](c2ccccc2)(C4)C3)CCN1` [Example C4] showed a CC50 in the data set “in vitro” of 14000 nM. In addition, the pEC50 in data set [1] is 5.99; in data set [2], 7.52; in data set [3] it was 6.75; in data set [4], below 5.52; in data set [5] (Zaire ebolavirus, Vero, 24 h), 7.11.
As to `C[C@@]12CC3CC(C(=O)N4CCC(N)CC4)(C1)C[C@](c1ccccc1)(C3)C2` [Example C7], the midpoint of cytotoxicity in “in vitro”, the CC50, lay at 13000 nM. Also, the pEC50 is 6.47 in data set [1]; 6.77 in data set [2]; 6.70 in data set [3]; 5.09 in data set [4]; 6.91 in data set [5] (Zaire ebolavirus, Vero, 24 h).
For the compound `C[C@@]12CC3CC(C(=O)N4CCC5(CCCN5)CC4)(C1)C[C@](c1ccccc1)(C3)C2` [Example C10], the midpoint of cytotoxicity in “in vitro”, the CC50, lay at 12700 nM. Also, the pEC50 was 6.81 in data set [1]; 6.74 in data set [2]; 7.07 in data set [3]; 7.00 in data set [5] (Zaire ebolavirus, Vero, 24 h).
`C[C@@]12CC3CC(CN4CCC(N)CC4)(C1)C[C@](c1ccccc1)(C3)C2` [Example C69] showed a CC50 in “in vitro” of 3800 nM. The pEC50 in data set [1] is 6.51; in data set [3] it was 6.68; in data set [4], 5.94; in data set [5] (Zaire ebolavirus, Vero, 24 h), 6.50.

Usually CC50 stands for the concentration at which the toxic effect on the cells reaches its halfway point. The low end stands for harm at low concentration, the high end for better tolerance by the cells. A word on the pEC50: it is the negative decadic logarithm of the EC50, by convention in mol/L.
